Here are results for 31 compounds from patent US7323465B2, “Alkansulfonamides as endothelin antagonists” (Actelion Pharmaceuticals Ltd., priority 2002, dated 2008).

Molecules are shown by their SMILES. pIC50: −log10 of the molar value.

The target of assay [1] is T1, human recombinant ETA receptors (Homo sapiens, UniProt P25101).
T1 construct: expressed in transfected cells; host or cells: CHO cells (microsomal membranes)
T1 sequence (P25101 21-427): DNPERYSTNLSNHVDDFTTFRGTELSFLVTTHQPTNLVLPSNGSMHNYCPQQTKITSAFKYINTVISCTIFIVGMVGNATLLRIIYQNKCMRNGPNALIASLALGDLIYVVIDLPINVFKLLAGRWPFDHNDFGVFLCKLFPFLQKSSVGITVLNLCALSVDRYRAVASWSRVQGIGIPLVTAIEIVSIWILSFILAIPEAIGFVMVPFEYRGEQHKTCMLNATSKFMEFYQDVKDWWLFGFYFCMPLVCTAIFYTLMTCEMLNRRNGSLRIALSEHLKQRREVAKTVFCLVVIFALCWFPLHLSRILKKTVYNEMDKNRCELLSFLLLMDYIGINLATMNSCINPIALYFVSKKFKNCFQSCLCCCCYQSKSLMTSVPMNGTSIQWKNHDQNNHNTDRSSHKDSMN
The experiment in a line: Inhibition of [125I]ET-1 binding to membranes from CHO cells carrying human ETA receptors. How it is done:
(§1) 1) Inhibition of Endothelin Binding to Membranes from CHO Cells Carrying Human ET Receptors:
(§2) For competition binding studies, membranes of CHO cells expressing human recombinant ETA or ETB receptors were used.
(§3) The assay was performed in 200 uL 50 mM Tris/HCl buffer, pH 7.4, including 25 mM MnCl2, 1 mM EDTA and 0.5% (w/v) BSA in polypropylene microtiter plates. […] After 2 h, the membranes were filtered on filterplates containing GF/C filters (Unifilterplates from Canberra Packard S.A. Zürich, Switzerland). To each well, 50 uL of scintillation cocktail was added (MicroScint 20, Canberra Packard S.A. Zürich, Switzerland) and the filter plates counted in a microplate counter (TopCount, Canberra Packard S.A. Zürich, Switzerland).
(§4) All the test compounds were dissolved, diluted and added in DMSO.

Assay [2] concerns the target T2, human recombinant ETB receptors (Homo sapiens, UniProt P24530).
T2 construct: expressed in transfected cells; host or cells: CHO cells (microsomal membranes)
T2 sequence (P24530 27-442): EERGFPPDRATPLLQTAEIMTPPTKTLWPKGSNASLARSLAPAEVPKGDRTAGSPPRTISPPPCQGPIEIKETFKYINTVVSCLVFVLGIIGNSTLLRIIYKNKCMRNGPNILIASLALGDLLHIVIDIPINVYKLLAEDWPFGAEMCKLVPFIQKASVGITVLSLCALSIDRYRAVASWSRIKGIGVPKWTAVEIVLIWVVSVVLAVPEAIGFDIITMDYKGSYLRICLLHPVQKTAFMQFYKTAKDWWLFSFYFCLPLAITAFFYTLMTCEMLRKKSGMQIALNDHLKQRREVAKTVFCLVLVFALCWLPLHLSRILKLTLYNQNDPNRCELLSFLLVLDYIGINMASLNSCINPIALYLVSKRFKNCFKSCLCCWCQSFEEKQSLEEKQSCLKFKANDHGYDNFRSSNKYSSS
The assay is described as follows: Inhibition of [125I]ET-1 binding to membranes from CHO cells carrying human ETB receptors. How it is done: as §1, §2, §3, §4
Further: 2.5% DMSO.

For `Cc1ccc(-c2c(NS(C)(=O)=O)ncnc2OCCCOc2ncc(Br)cn2)cc1` [Example 50], the pIC50 was 6.40 in assay [1] and less than 6.00 in assay [2].

As for `CS(=O)(=O)Nc1ncnc(OCCOc2ncc(Br)cn2)c1-c1ccc(Br)cc1` [Example 53], the values for the pIC50 in assay [1] and in assay [2] were 8.96 and 6.08, respectively.

For the compound `COc1cnc(OCCOc2ncnc(NS(C)(=O)=O)c2-c2ccc(Br)cc2)nc1` [Example 54], the pIC50 in assay [1] is 7.74; in assay [2], less than 6.00.

`CSc1cnc(OCCOc2ncnc(NS(C)(=O)=O)c2-c2ccc(Br)cc2)nc1` [Example 55]: the values for the pIC50 in assay [1] and in assay [2] were 8.89 and 6.34, respectively.

As for `CS(=O)(=O)Nc1ncnc(OCCOc2ncc(S(C)(=O)=O)cn2)c1-c1ccc(Br)cc1` [Example 56], the pIC50 in assay [1] is 8.80; in assay [2] it was 6.44.

As to `CS(=O)(=O)Nc1ncnc(OCCOc2ncc(C3CC3)cn2)c1-c1ccc(Br)cc1` [Example 57], the pIC50 was 8.16 in assay [1] and less than 6.00 in assay [2].

Turning to `CCS(=O)(=O)Nc1ncnc(OCCOc2ncc(Br)cn2)c1-c1ccc(Br)cc1` [Example 58], the pIC50 in assay [1] was 9.18; in assay [2], 6.08.

For the compound `CCS(=O)(=O)Nc1ncnc(OCCOc2ncc(OC)cn2)c1-c1ccc(Br)cc1` [Example 59], the pIC50 in assay [1] is 8.17; in assay [2] it was less than 6.00.

Take `CCS(=O)(=O)Nc1ncnc(OCCOc2ncc(SC)cn2)c1-c1ccc(Br)cc1` [Example 60]: the pIC50 was 9.10 in assay [1] and 6.37 in assay [2].

Turning to `CCS(=O)(=O)Nc1ncnc(OCCOc2ncc(S(C)(=O)=O)cn2)c1-c1ccc(Br)cc1` [Example 61], the pIC50 was 8.96 in assay [1] and 6.57 in assay [2].

With `CCS(=O)(=O)Nc1nc(C2CC2)nc(OCCOc2ncc(Br)cn2)c1-c1ccc(C)cc1` [Example 62], the pIC50 in assay [1] is 8.26; in assay [2], less than 6.00.

As for `CCS(=O)(=O)Nc1nc(C2CC2)nc(OCCOc2ncc(OC)cn2)c1-c1ccc(C)cc1` [Example 63], the results for the pIC50 in assay [1] and in assay [2] were 7.60 and less than 6.00, respectively.

For `CCS(=O)(=O)Nc1nc(C2CC2)nc(OCCOc2ncc(SC)cn2)c1-c1ccc(C)cc1` [Example 64], the pIC50 in assay [1] is 8.46; in assay [2], less than 6.00.

As to `CCS(=O)(=O)Nc1nc(C2CC2)nc(OCCOc2ncc(S(C)(=O)=O)cn2)c1-c1ccc(C)cc1` [Example 65], the pIC50 is 8.85 in assay [1] and less than 6.00 in assay [2].

For the compound `CCS(=O)(=O)Nc1ncnc(OCCOc2ncc(Br)cn2)c1-c1ccc(Cl)cc1` [Example 66], the pIC50 is 8.82 in assay [1] and less than 6.00 in assay [2].

Regarding `CCS(=O)(=O)Nc1ncnc(OCCOc2ncc(OC)cn2)c1-c1ccc(Cl)cc1` [Example 67], the pIC50 in assay [1] is 7.89; in assay [2], less than 6.00.

With `CCS(=O)(=O)Nc1ncnc(OCCOc2ncc(SC)cn2)c1-c1ccc(Cl)cc1` [Example 68], the pIC50 in assay [1] was 8.92; in assay [2] it was 6.25.

For the compound `CCS(=O)(=O)Nc1ncnc(OCCOc2ncc(S(C)(=O)=O)cn2)c1-c1ccc(Cl)cc1` [Example 69], the pIC50 is 8.92 in assay [1] and 6.50 in assay [2].

In the case of `CCCS(=O)(=O)Nc1ncnc(OCCOc2ncc(OC)cn2)c1-c1ccc(Br)cc1` [Example 71], the pIC50 is 8.44 in assay [1] and less than 6.00 in assay [2].

Turning to `CCCS(=O)(=O)Nc1ncnc(OCCOc2ncc(SC)cn2)c1-c1ccc(Br)cc1` [Example 72], the pIC50 in assay [1] was 9.22; in assay [2], 6.03.

`CCCS(=O)(=O)Nc1ncnc(OCCOc2ncc(S(C)(=O)=O)cn2)c1-c1ccc(Br)cc1` [Example 73]: the pIC50 in assay [1] is 9.23; in assay [2], 6.56.

In the case of `CCCCS(=O)(=O)Nc1ncnc(OCCOc2ncc(Br)cn2)c1-c1ccc(C)cc1` [Example 74], the pIC50 in assay [1] is 9.20; in assay [2], less than 6.00.

Consider `CCCCS(=O)(=O)Nc1ncnc(OCCOc2ncc(OC)cn2)c1-c1ccc(C)cc1` [Example 75], for which the figures for the pIC50 in assay [1] and in assay [2] were 8.46 and less than 6.00, respectively.

For `CCCCS(=O)(=O)Nc1ncnc(OCCOc2ncc(SC)cn2)c1-c1ccc(C)cc1` [Example 76], the pIC50 in assay [1] was 8.96; in assay [2], less than 6.00.

Take `CCCCS(=O)(=O)Nc1nc(C2CC2)nc(OCCOc2ncc(Br)cn2)c1-c1ccc(C)cc1` [Example 77]: the pIC50 in assay [1] was 8.64; in assay [2] it was less than 6.00.

Regarding `CCCCS(=O)(=O)Nc1nc(C2CC2)nc(OCCOc2ncc(OC)cn2)c1-c1ccc(C)cc1` [Example 78], the pIC50 was 8.00 in assay [1] and less than 6.00 in assay [2].

Take `CCCCS(=O)(=O)Nc1nc(C2CC2)nc(OCCOc2ncc(SC)cn2)c1-c1ccc(C)cc1` [Example 79]: the pIC50 is 8.68 in assay [1] and less than 6.00 in assay [2].

As to `CCCCS(=O)(=O)Nc1nc(C2CC2)nc(OCCOc2ncc(S(C)(=O)=O)cn2)c1-c1ccc(C)cc1` [Example 80], the values for the pIC50 in assay [1] and in assay [2] were 8.82 and less than 6.00, respectively.

On to `CCCCS(=O)(=O)Nc1ncnc(OCCOc2ncc(OC)cn2)c1-c1ccc(Br)cc1` [Example 82], for which the pIC50 in assay [1] is 8.90; in assay [2], less than 6.00.

Consider `CCCCS(=O)(=O)Nc1ncnc(OCCOc2ncc(SC)cn2)c1-c1ccc(Br)cc1` [Example 83], for which the pIC50 was 9.31 in assay [1] and 6.19 in assay [2].

On to `CCCCS(=O)(=O)Nc1ncnc(OCCOc2ncc(S(C)(=O)=O)cn2)c1-c1ccc(Br)cc1` [Example 84], for which the negative logarithm of the IC50 (pIC50) in assay [1] is 9.25; in assay [2], 6.93.

The pIC50 is the negative decadic logarithm of the IC50, by convention in mol/L.
